Data: patent US7598234B2, “Steroid derived antibiotics” (Brigham Young University, priority 1998, dated 2009)
≈ marks a conversion by molar mass, not a printed value.

How the values were obtained:
E. coli (ATCC 10798) [1] = experiment: Sensitization to novobiocin (concentration lowering the MIC of novobiocin), E. coli (ATCC 10798); format: cell-based, Escherichia coli; conditions: for (d) Concentration required to lower the MIC of novobiocin from >500 to 1 μg/mL / FIC values with novobiocin: Table 9, Escherichia coli (ATCC 10798)
Protocol: (§1) Alternatively, “fractional inhibitory concentration (FIC)” is also useful for determination of synergy between the compounds of the invention, or the compounds in combination with known antibiotics. FICs can be performed by checkerboard titrations of compounds in one dimension of a microtiter plate, and of antibiotics in the other dimension, for example. The FIC is calculated by looking at the impact of one antibiotic on the MIC of the other and vice versa. […] Preferably, an FIC of less than 0.5 is obtained for synergism. As used herein, FIC can be determined as follows:
(§2) Aliquots of 1 mL of the suspension were added to test tubes containing 1 mL TSB and incrementally varied concentrations of cholic acid derivatives and/or erythromycin or novobiocin. In the sensitization experiments, erythromycin or novobiocin were added 15 minutes later than the cholic acid derivatives. The samples were subjected to stationary incubation at 37° C. for 24 hours. Sample turbidity was determined by measuring absorption at 760 nm (HP 8453 UV-Visible Chemstation, Hewlett Packard). Additionally, an alliquot from each of the samples showing no measurable turbidity was subcultured on TSA plates (alliquots were diluted to provide fewer than 300 CFU). Colonies that grew on the subculture after overnight incubation were counted and the number of CFU/mL in the samples were calculated. The calculated values were compared to the number of CFU/mL in the original inoculum.
(§3) Ability to permeabilize outer membrane: Compounds 11, 106, and 108-114 (FIG. 1) were tested for antibiotic activity. They were also tested for the ability to permeabilize the outer membrane of Gram-negative bacteria, causing sensitization to hydrophobic antibiotics that cannot cross the outer membrane. The permeabilization of the outer membrane was measured using erythromycin and novobiocin.
(§4) The MICs of erythromycin and novobiocin against E. coli (ATCC 10798) at 70 and >500 μg/mL were measured.

E. coli (ATCC 10798) [2] = experiment: Sensitization to erythromycin (concentration lowering the MIC of erythromycin), E. coli (ATCC 10798); format: cell-based, Escherichia coli; conditions: for (a) Concentration required to lower the MIC of erythromycin from 70 to 1 μg/mL / (b) MBC with 1 μg/mL erythromycin / FIC values with erythromycin: Table 9, Escherichia coli (ATCC 10798); for MIC: concentration required to lower the MIC of erythromycin from 70 μg/mL to 1 μg/mL / MBC (with erythromycin): Table 2; for MBC (with erythromycin): erythromycin sensitization
Protocol: as §1, §2, §3, §4

E. coli (ATCC 10798) [3] = experiment: MIC and MBC measurement with E. coli (ATCC 10798); format: cell-based, Escherichia coli
Text: (§5) General: Microorganisms. Reference strains were purchased from the American Type Culture Collection (Rockville, Md.) or Bactrol disks from Difeo Laboratories (Detroit, Mich.). The following specific ATCC strains were used: 10798 Escherichia coli, 25922 Escherichia coli, 13883 Klebsiella pneumoniae, 27853 Pseudomonas aeruginosa, 14028 Salmonella typhimurium, 29212 Enterococcus faecalis, 25923 Staphylococcus aureus, 19615 Streptococcus pyogenes, and 90028 Candida albicans. Bacterial strains were maintained on Mueller-Hinton agar plates, and Candida albicans was maintained on Sabouraud Dextrose agar plates.
(§6) Tryptic soy broth (TSB) was made by dissolving 27.5 grams of tryptic soy broth without dextrose (DIFCO Laboratories) in 1 liter of deionized water and sterilizing at 121° C. for 15 minutes. Solid agar (TSA) plates were made by dissolving 6.4 grams of tryptic soy broth and 12 grams of agar (purified grade, Fischer Scientific) in 800 mL of deionized water and sterilizing at 121° C. for 20 minutes. Aliquots (20 mL) of the homogeneous solution were then poured in sterile plastic petri dishes (100×15 mm, Fisher Scientific). Solutions of compounds were made by dissolving the HCl salt of the respective compound into an appropriate amount of deionized and sterilized water followed by microfiltration.
as §2

[4] = system: Pseudomonas aeruginosa (ATCC 27853); experiment: MIC and MBC measurement with Pseudomonas aeruginosa (ATCC 27853); format: cell-based; conditions: P. aureginosa (ATCC 27853); for MIC of the antibiotic alone: starting MIC in sensitization tests; for MIC: Table 6
Text: as §5, §6, §2

[5] = system: Pseudomonas aeruginosa (ATCC 27853); experiment: Sensitization to erythromycin, Pseudomonas aeruginosa (ATCC 27853); format: cell-based; conditions: Table 7; P. aureginosa (ATCC 27853)
Protocol: as §1
as §2, with “inoculum. […]” for “inoculum.”
To measure permeabilization, the FIC values for compounds 1, 2, 5, 106, 10, 112, 133, and 134 with erythromycin, novobiocin, and rifampicin were determined. Concentrations of 0.5, 1.0 or 3.0 μg/mL of these antibiotics were used, and the concentrations of the cholic acid derivatives required to inhibit bacterial growth of Gram-negative strains were determined.

E. coli (ATCC 25922) = experiment: MIC and MBC measurement with E. coli (ATCC 25922); format: cell-based, Escherichia coli
Text: as §5, §6
as §2, with “inoculum. […]” for “inoculum.”

[6] = system: Staphylococcus aureus ATCC 25923; experiment: MIC and MBC measurement with Staphylococcus aureus ATCC 25923; format: cell-based; conditions: Table 10; Staphylococcus aureus ATCC 25923
Text: as §5, §6
as §2, with “inoculum. […]” for “inoculum.”

[7] = Table 9, Escherichia coli (ATCC 10798)

Molecule	FIC values with novobiocin (E. coli (ATCC 10798) [1])	(a) Concentration required to lower the MIC of erythromycin from 70 to 1 μg/mL (E. coli (ATCC 10798) [2]) [µg/mL]	(b) MBC with 1 μg/mL erythromycin (E. coli (ATCC 10798) [2]) [µg/mL]	FIC values with erythromycin (E. coli (ATCC 10798) [2])	MBC (E. coli (ATCC 10798) [3]; [7]) [µg/mL]	MIC (E. coli (ATCC 10798) [3]; [7]) [µg/mL]	MIC: concentration required to lower the MIC of erythromycin from 70 μg/mL to 1 μg/mL (E. coli (ATCC 10798) [2]; E. coli (ATCC 10798)) [µg/mL]	MIC (E. coli (ATCC 10798) [3]; Table 1, E. coli (ATCC 10798)) [µg/mL]	further results
COCCC[C@@H](C)[C@H]1CC[C@H]2[C@@H]3[C@H](OCCCN)C[C@@H]4C[C@H](OCCCN)CC[C@]4(C)[C@H]3C[C@H](OCCCN)[C@]12C [Compound 111]	0.069	1.0	20	0.048	33 (≈ 56.9 µM)	30 (≈ 51.7 µM)	–	–	(d) Concentration required to lower the MIC of novobiocin from >500 to 1 μg/mL (E. coli (ATCC 10798) [1]): 2.0 µg/mL
C[C@H](CCCOCCC[C@@H](C)[C@H]1CC[C@H]2[C@@H]3[C@H](OCCCN)C[C@@H]4C[C@H](OCCCN)CC[C@]4(C)[C@H]3C[C@H](OCCCN)[C@]12C)[C@H]1CC[C@H]2[C@@H]3[C@H](OCCCN)C[C@@H]4C[C@H](OCCCN)CC[C@]4(C)[C@H]3C[C@H](OCCCN)[C@]12C [Compound 12]	–	–	–	–	–	–	1.5	4 (≈ 3.59 µM)	MIC: concentration required to lower the MIC of novobiocin from >500 μg/mL to 1 μg/mL (E. coli (ATCC 10798) [1]; Table 3, E. coli (ATCC 10798)): 2.5 µg/mL; MBC (with erythromycin) (E. coli (ATCC 10798) [2]; E. coli (ATCC 10798)): 2.5 µg/mL; MBC (E. coli (ATCC 10798) [3]; Table 1, E. coli (ATCC 10798)): 4 µg/mL (≈ 3.59 µM)
CO[C@@H]1[C@@H](OC(N)=O)[C@@H](O)[C@H](Oc2ccc3c(O)c(NC(=O)c4ccc(O)c(CC=C(C)C)c4)c(=O)oc3c2C)OC1(C)C [novobiocin, reference compound]	–	–	–	–	–	–	–	–	MIC of the antibiotic alone [4]: >500 μg/mL to 1 μg/mL with P. aureginosa (ATCC 27853).
CCCCCCCCOCCC[C@@H](C)[C@H]1CC[C@H]2[C@@H]3[C@H](OCCCN)C[C@@H]4C[C@H](OCCCN)CC[C@]4(C)[C@H]3C[C@H](OCCCN)[C@]12C [Compound 9]	–	–	–	–	–	–	3	3 (≈ 4.42 µM)	MBC (with erythromycin) (E. coli (ATCC 10798) [2]; E. coli (ATCC 10798)): 3 µg/mL; MBC (E. coli (ATCC 10798) [3]; Table 1, E. coli (ATCC 10798)): 10 µg/mL (≈ 14.7 µM); MIC [4]: 8 µg/mL (≈ 11.8 µM); MIC: concentration required to lower the MIC of erythromycin from 240 μg/mL to 5 μg/mL [5]: 5 µg/mL
CC(O)[C@H]1CC[C@H]2[C@@H]3[C@H](OCCCN)C[C@@H]4C[C@H](OCCCN)CC[C@]4(C)[C@H]3C[C@H](OCCCN)[C@]12C (some centres unmarked) [Compound 11]	0.29	20	180	0.16	>160	140 (≈ 267 µM)	40	140 (≈ 267 µM)	MIC: concentration required to lower the MIC of novobiocin from >500 μg/mL to 1 μg/mL (E. coli (ATCC 10798) [1]; Table 3, E. coli (ATCC 10798)): 40 µg/mL; MBC (with novobiocin) (E. coli (ATCC 10798) [1]; Table 3, E. coli (ATCC 10798), novobiocin sensitization): 140 µg/mL; (d) Concentration required to lower the MIC of novobiocin from >500 to 1 μg/mL (E. coli (ATCC 10798) [1]): 40 µg/mL; MBC (with erythromycin) (E. coli (ATCC 10798) [2]; E. coli (ATCC 10798)): >160 µg/mL; MBC (E. coli (ATCC 10798) [3]; Table 1, E. coli (ATCC 10798)): >160 µg/mL
C[C@H](CCCN)[C@H]1CC[C@H]2[C@@H]3[C@H](OCCCN)C[C@@H]4C[C@H](OCCCN)CC[C@]4(C)[C@H]3C[C@H](OCCCN)[C@]12C [Compound 135]	–	–	–	–	–	–	–	–	MBC (in words) (E. coli (ATCC 10798) [3]; FIG. 5, strain not named): relatively high; MIC (in words) (E. coli (ATCC 10798) [3]; FIG. 5, strain not named): relatively high
C[C@H](CCO)[C@H]1CC[C@H]2[C@@H]3[C@H](OCCCN)C[C@@H]4C[C@H](OCCCN)CC[C@]4(C)[C@H]3C[C@H](OCCCN)[C@]12C [Compound 109]	0.22	–	–	0.071	–	–	–	–	–
C[C@H](CCCN(C)Cc1ccccc1)[C@H]1CC[C@H]2[C@@H]3[C@H](OCCN)C[C@@H]4C[C@@H](OCCN)CC[C@]4(C)[C@H]3C[C@H](OCCN)[C@]12C [Compound 8]	–	–	–	–	–	–	10	46 (≈ 73.4 µM)	MIC [4]: 50 µg/mL (≈ 79.7 µM); MIC: concentration required to lower the MIC of erythromycin from 240 μg/mL to 5 μg/mL [5]: 40 µg/mL
polymyxin B [PMB, reference compound]	–	–	–	–	–	–	–	–	MBC (E. coli (ATCC 25922); Table 10, Escherichia coli ATCC 25922): 1.8 µg/mL; MBC [6]: >100 µg/mL
CCCCCOCCC[C@@H](C)[C@H]1CC[C@H]2[C@@H]3[C@H](OCCCN)C[C@@H]4C[C@H](OCCCN)CC[C@]4(C)[C@H]3C[C@H](OCCCN)[C@]12C [Compound 113]	0.27	0.8	2.0	0.28	5.0 (≈ 7.86 µM)	3.0 (≈ 4.72 µM)	–	–	(d) Concentration required to lower the MIC of novobiocin from >500 to 1 μg/mL (E. coli (ATCC 10798) [1]): 1.0 µg/mL
C[C@H](CCCN(C)Cc1ccccc1)[C@H]1CC[C@H]2[C@@H]3[C@H](OCCCCN)C[C@@H]4C[C@H](OCCCCN)CC[C@]4(C)[C@H]3C[C@H](OCCCCN)[C@]12C [Compound 3]	–	–	–	–	–	–	1.5	6 (≈ 8.44 µM)	MIC [4]: 16 µg/mL (≈ 22.5 µM); MIC: concentration required to lower the MIC of erythromycin from 240 μg/mL to 5 μg/mL [5]: 6 µg/mL
C[C@H](CO)[C@H]1CC[C@H]2[C@@H]3[C@H](OCCCN)C[C@@H]4C[C@H](OCCCN)CC[C@]4(C)[C@H]3C[C@H](OCCCN)[C@]12C [Compound 108]	0.17	–	–	0.071	–	–	–	–	–
CC[C@H]1OC(=O)[C@H](C)[C@@H](O[C@H]2C[C@@](C)(OC)[C@@H](O)[C@H](C)O2)[C@H](C)[C@@H](O[C@@H]2O[C@H](C)C[C@H](N(C)C)[C@H]2O)[C@](C)(O)C[C@@H](C)C(=O)[C@H](C)[C@@H](O)[C@]1(C)O [erythromycin, reference compound]	–	–	–	–	–	–	–	–	MIC (E. coli (ATCC 25922); Escherichia coli, ATCC25922, E. coli (ATCC 25922), starting MIC in sensitization tests, read-out: MIC of erythromycin alone): 36 µg/mL; MIC of the antibiotic alone [4]: 240 μg/mL to 5 μg/mL with P. aureginosa (ATCC 27853).
C[C@H](CCCO)[C@H]1CC[C@H]2[C@@H]3[C@H](OCCCN)C[C@@H]4C[C@H](OCCCN)CC[C@]4(C)[C@H]3C[C@H](OCCCN)[C@]12C [Compound 110]	0.11	2.0	50	0.070	60 (≈ 106 µM)	36 (≈ 63.6 µM)	–	–	(d) Concentration required to lower the MIC of novobiocin from >500 to 1 μg/mL (E. coli (ATCC 10798) [1]): 4.0 µg/mL
CCCCCCCCOCCC[C@@H](C)[C@H]1CC[C@H]2[C@@H]3[C@H](OCCCN)C[C@@H]4C[C@H](OCCCN)CC[C@]4(C)[C@H]3C[C@H](OCCCN)[C@]12C [Compound 114]	–	3.0	3.0	1.0	10 (≈ 14.7 µM)	3.0 (≈ 4.42 µM)	–	–	–
C[C@H](CCCOS(=O)(=O)O)[C@H]1CC[C@H]2[C@@H]3[C@H](OCCCN)C[C@@H]4C[C@H](OCCCN)CC[C@]4(C)[C@H]3C[C@H](OCCCN)[C@]12C [Compound 132]	–	–	–	–	–	–	–	–	concentration required to lower the MIC of erythromycin to 1 μg/mL (E. coli (ATCC 10798) [2]; E. coli (ATCC 10798)): 4.0 µg/mL; MIC (E. coli (ATCC 10798) [3]; E. coli (ATCC 10798)): 60 µg/mL (≈ 92.9 µM)
